Laboratory results taken from the supplement of paper PMC7645387.
± gives the standard deviation of the averaged measurements.

Legend:
Assay in all cases: cell viability relative to DMSO control; higher = less growth inhibition
Conditions in all cases: treatment time: 6 days
PeTa = test system: PeTa
Procedure: (§1)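 MCC cell lines (PeTa, MKL-1, MS-1, WaGa) and HDFB fibroblasts were treated for 6 days with serial dilutions (1e-11 to 1e-4 M) of single compounds in quadruplicate. Viability was read by CellTiter-Glo 2.0 and expressed as % of DMSO control.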

MKL-1 = test system: MKL-1
Procedure: as §1

HDFB = test system: HDFB
Procedure: as §1

MS-1 = test system: MS-1
Procedure: as §1

WaGa = test system: WaGa
Procedure: as §1

SMILES: O=C(NC[C@H](O)CN1CCc2ccccc2C1)c1ccnc(NC2CCC2)c1 [GSK591]
- cell viability (PeTa; log10 concentration (M): -4): 26.2 ± 2.9%
- cell viability (PeTa; log10 concentration (M): -5): 80.4 ± 3.4%
- cell viability (PeTa; log10 concentration (M): -6): 93.2 ± 3.1%
- cell viability (PeTa; log10 concentration (M): -7): 103 ± 3.5%
- cell viability (PeTa; log10 concentration (M): -8): 107 ± 7.2%
- cell viability (PeTa; log10 concentration (M): -9): 108 ± 6.4%
- cell viability (PeTa; log10 concentration (M): -10): 106 ± 7.8%
- cell viability (PeTa; log10 concentration (M): -11): 100 ± 7.8%
- cell viability (MKL-1; log10 concentration (M): -4): 37.2 ± 2.9%
- cell viability (MKL-1; log10 concentration (M): -5): 64.4 ± 12%
- cell viability (MKL-1; log10 concentration (M): -6): 72.4 ± 13%
- cell viability (MKL-1; log10 concentration (M): -7): 79.2 ± 16%
- cell viability (MKL-1; log10 concentration (M): -8): 84.2 ± 21%
- cell viability (MKL-1; log10 concentration (M): -9): 98.2 ± 17%
- cell viability (MKL-1; log10 concentration (M): -10): 111 ± 28%
- cell viability (MKL-1; log10 concentration (M): -11): 101 ± 22%
- cell viability (HDFB; log10 concentration (M): -4): 91.5 ± 3.5%
- cell viability (HDFB; log10 concentration (M): -5): 115 ± 7.4%
- cell viability (HDFB; log10 concentration (M): -6): 112 ± 5.1%
- cell viability (HDFB; log10 concentration (M): -7): 117 ± 5.5%
- cell viability (HDFB; log10 concentration (M): -8): 113 ± 3.1%
- cell viability (HDFB; log10 concentration (M): -9): 104 ± 2.8%
- cell viability (HDFB; log10 concentration (M): -10): 104 ± 2.1%
- cell viability (HDFB; log10 concentration (M): -11): 101 ± 2%

SMILES: c1ccc([C@@H]2C[C@H]2NC2CCNCC2)cc1 [GSK-LSD1]
- cell viability (PeTa; log10 concentration (M): -5): 28.8 ± 1.3%
- cell viability (PeTa; log10 concentration (M): -6): 23.1 ± 2.4%
- cell viability (PeTa; log10 concentration (M): -7): 21.3 ± 0.88%
- cell viability (PeTa; log10 concentration (M): -8): 28.1 ± 0.85%
- cell viability (PeTa; log10 concentration (M): -9): 67.8 ± 4.2%
- cell viability (PeTa; log10 concentration (M): -10): 101 ± 5.4%
- cell viability (PeTa; log10 concentration (M): -11): 99.1 ± 7.4%
- cell viability (MS-1; log10 concentration (M): -5): 45.9 ± 1.6%
- cell viability (MS-1; log10 concentration (M): -6): 45.4 ± 3.8%
- cell viability (MS-1; log10 concentration (M): -7): 47.6 ± 1.6%
- cell viability (MS-1; log10 concentration (M): -8): 47.1 ± 3.4%
- cell viability (MS-1; log10 concentration (M): -9): 74.9 ± 5.8%
- cell viability (MS-1; log10 concentration (M): -10): 93.1 ± 2.9%
- cell viability (MS-1; log10 concentration (M): -11): 94.7 ± 3.8%
- cell viability (WaGa; log10 concentration (M): -5): 45 ± 5.1%
- cell viability (WaGa; log10 concentration (M): -6): 49.8 ± 2.1%
- cell viability (WaGa; log10 concentration (M): -7): 44.1 ± 5.5%
- cell viability (WaGa; log10 concentration (M): -8): 55.4 ± 1.8%
- cell viability (WaGa; log10 concentration (M): -9): 76.6 ± 5.2%
- cell viability (WaGa; log10 concentration (M): -10): 95.6 ± 3%
- cell viability (WaGa; log10 concentration (M): -11): 97.6 ± 6.1%
- cell viability (MKL-1; log10 concentration (M): -5): 56.1 ± 5.8%
- cell viability (MKL-1; log10 concentration (M): -6): 62 ± 1.4%
- cell viability (MKL-1; log10 concentration (M): -7): 60.1 ± 3.4%
- cell viability (MKL-1; log10 concentration (M): -8): 67.2 ± 1.8%
- cell viability (MKL-1; log10 concentration (M): -9): 87.9 ± 6.7%
- cell viability (MKL-1; log10 concentration (M): -10): 98.1 ± 2.9%
- cell viability (MKL-1; log10 concentration (M): -11): 98.7 ± 1.5%
- cell viability (HDFB; log10 concentration (M): -5): 97.43 ± 0.88%
- cell viability (HDFB; log10 concentration (M): -6): 98.5 ± 1.4%
- cell viability (HDFB; log10 concentration (M): -7): 98.6 ± 3.9%
- cell viability (HDFB; log10 concentration (M): -8): 99.4 ± 4.2%
- cell viability (HDFB; log10 concentration (M): -9): 100 ± 1.2%
- cell viability (HDFB; log10 concentration (M): -10): 105 ± 2.1%
- cell viability (HDFB; log10 concentration (M): -11): 103 ± 1.1%

SMILES: CN1CCN(c2ccc(-c3cccc(CN4CCOCC4)c3)cc2NC(=O)c2c[nH]c(=O)cc2C(F)(F)F)CC1 [OICR9429]
- cell viability (PeTa; log10 concentration (M): -4): 49.1 ± 85%
- cell viability (PeTa; log10 concentration (M): -5): 96.8 ± 45%
- cell viability (PeTa; log10 concentration (M): -6): 103 ± 21%
- cell viability (PeTa; log10 concentration (M): -7): 111 ± 21%
- cell viability (PeTa; log10 concentration (M): -8): 119 ± 29%
- cell viability (PeTa; log10 concentration (M): -9): 126 ± 27%
- cell viability (PeTa; log10 concentration (M): -10): 122 ± 21%
- cell viability (PeTa; log10 concentration (M): -11): 126 ± 25%
- cell viability (MKL-1; log10 concentration (M): -4): 0.438 ± 0.44%
- cell viability (MKL-1; log10 concentration (M): -5): 57.6 ± 3.4%
- cell viability (MKL-1; log10 concentration (M): -6): 79.2 ± 7.5%
- cell viability (MKL-1; log10 concentration (M): -7): 87.1 ± 17%
- cell viability (MKL-1; log10 concentration (M): -8): 80.2 ± 6.2%
- cell viability (MKL-1; log10 concentration (M): -9): 85.8 ± 12%
- cell viability (MKL-1; log10 concentration (M): -10): 89.9 ± 12%
- cell viability (MKL-1; log10 concentration (M): -11): 85.7 ± 13%
- cell viability (HDFB; log10 concentration (M): -4): 42.7 ± 12%
- cell viability (HDFB; log10 concentration (M): -5): 83.7 ± 5.2%
- cell viability (HDFB; log10 concentration (M): -6): 97.6 ± 5.7%
- cell viability (HDFB; log10 concentration (M): -7): 105 ± 3.1%
- cell viability (HDFB; log10 concentration (M): -8): 117 ± 20%
- cell viability (HDFB; log10 concentration (M): -9): 113 ± 7.9%
- cell viability (HDFB; log10 concentration (M): -10): 108 ± 4.6%
- cell viability (HDFB; log10 concentration (M): -11): 104 ± 4.1%

SMILES: N[C@H]1CC[C@H](N[C@@H]2C[C@H]2c2ccccc2)CC1 [ORY-1001]
- cell viability (PeTa; log10 concentration (M): -5): 22.3 ± 2.8%
- cell viability (PeTa; log10 concentration (M): -6): 18.2 ± 3.2%
- cell viability (PeTa; log10 concentration (M): -7): 17.2 ± 0.89%
- cell viability (PeTa; log10 concentration (M): -8): 16.3 ± 1.2%
- cell viability (PeTa; log10 concentration (M): -9): 47.5 ± 17%
- cell viability (PeTa; log10 concentration (M): -10): 102 ± 6.4%
- cell viability (PeTa; log10 concentration (M): -11): 97.6 ± 4.8%
- cell viability (MS-1; log10 concentration (M): -5): 47.3 ± 2.2%
- cell viability (MS-1; log10 concentration (M): -6): 56.8 ± 1.2%
- cell viability (MS-1; log10 concentration (M): -7): 58.9 ± 5.5%
- cell viability (MS-1; log10 concentration (M): -8): 57.2 ± 2.4%
- cell viability (MS-1; log10 concentration (M): -9): 58.8 ± 1.9%
- cell viability (MS-1; log10 concentration (M): -10): 104 ± 3%
- cell viability (MS-1; log10 concentration (M): -11): 104 ± 16%
- cell viability (WaGa; log10 concentration (M): -5): 35.1 ± 2.3%
- cell viability (WaGa; log10 concentration (M): -6): 38.3 ± 4.8%
- cell viability (WaGa; log10 concentration (M): -7): 39.7 ± 5.1%
- cell viability (WaGa; log10 concentration (M): -8): 44 ± 5.8%
- cell viability (WaGa; log10 concentration (M): -9): 63.3 ± 1.2%
- cell viability (WaGa; log10 concentration (M): -10): 91.5 ± 1.2%
- cell viability (WaGa; log10 concentration (M): -11): 99.1 ± 0.86%
- cell viability (MKL-1; log10 concentration (M): -5): 39.8 ± 5.9%
- cell viability (MKL-1; log10 concentration (M): -6): 44.9 ± 3.6%
- cell viability (MKL-1; log10 concentration (M): -7): 46.4 ± 4.5%
- cell viability (MKL-1; log10 concentration (M): -8): 62.8 ± 28%
- cell viability (MKL-1; log10 concentration (M): -9): 81 ± 16%
- cell viability (MKL-1; log10 concentration (M): -10): 102 ± 3.2%
- cell viability (MKL-1; log10 concentration (M): -11): 100 ± 4.5%
- cell viability (HDFB; log10 concentration (M): -5): 95.7 ± 2.2%
- cell viability (HDFB; log10 concentration (M): -6): 97.6 ± 3.9%
- cell viability (HDFB; log10 concentration (M): -7): 94.1 ± 2.7%
- cell viability (HDFB; log10 concentration (M): -8): 95.1 ± 2.2%
- cell viability (HDFB; log10 concentration (M): -9): 96.1 ± 1.3%
- cell viability (HDFB; log10 concentration (M): -10): 99.58 ± 0.98%
- cell viability (HDFB; log10 concentration (M): -11): 100 ± 1.3%

SMILES: CCOC(=O)NCCCC(=O)NCCc1ccccc1 [Santacruzamate A]
- cell viability (PeTa; log10 concentration (M): -4): 45.5 ± 14%
- cell viability (PeTa; log10 concentration (M): -5): 104 ± 5.5%
- cell viability (PeTa; log10 concentration (M): -6): 105 ± 2.4%
- cell viability (PeTa; log10 concentration (M): -7): 99.9 ± 11%
- cell viability (PeTa; log10 concentration (M): -8): 105 ± 1.4%
- cell viability (PeTa; log10 concentration (M): -9): 103 ± 1.9%
- cell viability (PeTa; log10 concentration (M): -10): 105 ± 3.6%
- cell viability (PeTa; log10 concentration (M): -11): 103 ± 2.8%
- cell viability (MKL-1; log10 concentration (M): -4): 34.9 ± 2.9%
- cell viability (MKL-1; log10 concentration (M): -5): 106 ± 1.2%
- cell viability (MKL-1; log10 concentration (M): -6): 105 ± 1.5%
- cell viability (MKL-1; log10 concentration (M): -7): 104 ± 1.9%
- cell viability (MKL-1; log10 concentration (M): -8): 103 ± 1.4%
- cell viability (MKL-1; log10 concentration (M): -9): 102 ± 3.4%
- cell viability (MKL-1; log10 concentration (M): -10): 99.3 ± 7.4%
- cell viability (MKL-1; log10 concentration (M): -11): 100 ± 1.6%
- cell viability (HDFB; log10 concentration (M): -4): 41.6 ± 3.4%
- cell viability (HDFB; log10 concentration (M): -5): 103 ± 3.4%
- cell viability (HDFB; log10 concentration (M): -6): 103 ± 3.5%
- cell viability (HDFB; log10 concentration (M): -7): 99.8 ± 4.6%
- cell viability (HDFB; log10 concentration (M): -8): 101 ± 3.4%
- cell viability (HDFB; log10 concentration (M): -9): 101 ± 6.3%
- cell viability (HDFB; log10 concentration (M): -10): 99.3 ± 7.7%
- cell viability (HDFB; log10 concentration (M): -11): 100 ± 9.2%
